Data from US10959995B2, “Methods of acute restoration of vascular compliance” (Alumend, LLC, priority 2013, dated 2021).
“Also recorded” adds a separate entry of the source.

Columns and labels:
[1] = test system: hard and soft plaque from common and lower femoral artery; assay: Tissue immersion: plaque hardness by manual manipulation with forceps; design: species or system human; details: PBS pH 7.4
From the text: A sample of human tissue from the common and lower femoral artery was received. It was stored in saline and refrigerated until use. Based upon visual and tactile observations, the arteries were approximately 7-8 mm in diameter and contained evidence of both hard and soft plaque. The soft plaque has a yellow fatty appearance that is distinguishable from the vessel wall. The hard plaque presents itself as hard pieces of material that can be pulled (with a forceps) from the soft plaque. Sections of the artery suitable for catheter work were segregated and stored in phosphate buffered saline (PBS), pH=7.4. From the remaining arterial sections, pieces of tissue containing both hard and soft plaque were removed. These pieces were either placed in a solution of PBS (pH=7.4), or dimeric naphthalimide, such as a compound of formula (V) (which is in PBS, pH=7.4). Prior to immersion in either solution the relative hardness of the plaque was evaluated via manual manipulation with a forcep. After a 5 minute soak in solution (typical exposure time), no difference in the samples soaked in PBS was noticed (control). […] The samples were then left in their respective solutions for an additional 90 minutes.

[2] = Storage stability of naphthalimide dimer (solution and powder); type: physicochemical
From the text: A preparative HPLC approach was used to isolate and specifically purify the compound of formula (V) dimer from the compound of formula (V) naphthalimide product produced from the ethanol crystallization. The HPLC method used was based on the purity method outlined above; however, method modifications were made to replace acetonitrile with ethanol and TFA with acetic acid in the mobile phase. The preparative separation utilized a C18 column (X-bridge, 10 μm, 19×250 mm, Waters). The mobile phase consisted of mobile phase A, 0.1% acetic acid (aq), and mobile phase B, 9:1 ethanol:water (0.1% v/v acetic acid). The column was pre-equilibrated at a starting mobile phase of 95% A:5% B for 20 minutes, at the start of the gradient was a 2 minute hold followed by a linear gradient to 90% B at 40 minutes and a 10 minute hold. An injection volume of 8.5 mL (12 mg/mL purified compound of formula (V)) and flow rate of 8.5 mL/minute were used as well as a detector wavelength of 440 nm. The compound of formula (V) fractions were collected and analyzed using the analytical purity method presented above. Fractions meeting a minimum purity criterion were combined and the solvent driven off by rotovapping the solution to dryness. […] Finally the product was quantitatively transferred from the round bottom flask to a freeze drying flask by dissolving the product in a minimal amount of deionized water. […]

[3] = test system: hard (calcified) and soft plaque in diseased arteries; assay: Plaque penetration: diseased arteries soaked with plaque softening composition, light activated, visual and histological examination; design: species or system human
Protocol: Diseased arteries were obtained from limb amputations (leg) due to advanced Periperal Arterial Disease (PAD) from patients at Avera McKennan hospital. The received arteries were evaluated and chosen such that the diseased section was of reasonable size to accommodate the treatment catheter balloon length being used. The catheter balloon diameter used was also matched to the diameter of the artery and capable of achieving a 1:1.25 (ratio of artery diameter to balloon diameter) overstretch. The artery was laid in a petri dish and an angioplasty balloon was inserted and inflated for 60 seconds to impart the desired overstretch. While the angioplasty balloon was inflated a permanent marker was used to define the treatment zone (where the overstretch was imparted by the balloon) on the outer surface of the artery. The angioplasty balloon was deflated and removed. The inner lumen of the diseased artery was exposed to a plaque softening composition comprising a compound of formula (V) naphthalimide formulation (2 mg/mL in phosphate buffered saline, pH=7.4) for a period of 5 minutes. For the purpose of filling the artery, one end was clamped, the artery was held upright and a syringe was used to dispense the naphthalimide solution until the inner lumen was filled. The open end of the artery was then clamped and the soaking period of 5 minutes commenced. […] Arteries were cut open lengthwise and the treated section was evaluated by visual examination.
Prior to cutting the artery for visual examination samples from the treated and untreated sections were collected and preserved for histological examination. […] After this time, samples were stored in a −80° C. freezer until ready for further analysis. […] The crystalline nature of hard plaque is readily visible without staining. Under this magnification the crystalline structure of the calcific plaque was readily visible, as shown in FIG. 8 the dark area between the two lighter colored areas of the media. […]

artery tissue = assay: Angioplasty with plaque-softening composition and photoactivation: fissure observation; design: species or system human
Protocol: The tissue was an artery approximately 7.4 mm in diameter. An Ultra-thin SDS 8 mm×30 mm catheter was used to dilate the artery to 7.55 mm (approximately a 2% overstretch). A fissure or a possible dissection running down the length of the tissue sample was observed.
A section (6.5 cm in length) of artery was exposed to the composition for 5 minutes. An 80 mm catheter was used to impart a 2% overstretch to the artery. The angioplasty was followed by photoactivation at 1800 mW for 60 seconds using the same 80 mm catheter with a 60 mm light fiber centered in the catheter.
A catheter with an 80 mm treatment zone balloon was used however the photoactivating light fiber was only 60 mm in length. During activation it was noted that the light fiber was shifted distally in the catheter. This meant that the distal end of the artery was receiving photoactivation, however, the proximal end received little or no light. A fissure down the length of the artery was again observed.

artery = assay: Arterial compression with other photoactivated material; details: FIG. 13
Protocol: Singlet oxygen generating species, such as Rose Bengal, riboflavin, and methylene blue were tested to determine if they would be effective at arterial compression.

[4] = 2 mg/mL in PBS pH 7.4, 5 minute soak, 447 nm light activation 60 seconds

NCCOCCOCCNc1ccc2c3c(cccc13)C(=O)N(CCOCCOCCN1C(=O)c3cccc4c(NCCOCCOCCN)ccc(c34)C1=O)C2=O [compound of formula (V)]
plaque hardness after soak ([1]; 5 minute soak in solution): slight softening | plaque hardness after soak ([1]; additional 90 minutes in solution): significantly softer and more pliable | degradation of dimer in powder form ([2]; periods exceeding one year of storage in a dessicator at room temperature): no evidence of degradation | stability of dimer solution ([2]; solution at pH 7.4, periods up to one year): excellent stability | tacking of intimal flaps [3, 4]: definitive observation of tacking of intimal flaps | visual/tactile observation of plaque in treated region [3, 4]: apparent softened plaque; also recorded: looked and felt softer and creamier | calcium crystals in treated sections under microscope ([3]; treated vs untreated sections of artery): less evidence of calcium crystals | repair of fissure (artery tissue; angioplasty then composition, distal region with adequate photoactivation): there appeared to be a seam indicating repair | fissure in opened artery (artery tissue; composition 5 minutes, then angioplasty 2% overstretch, photoactivation 1800 mW 60 seconds): no fissure observed

CN(C)c1ccc2nc3ccc(=[N+](C)C)cc-3sc2c1 [methylene blue]
efficacy at arterial compression (artery): No efficacy

Cc1cc2nc3c(=O)[nH]c(=O)nc-3n(C[C@H](O)[C@H](O)[C@H](O)CO)c2cc1C [riboflavin]
efficacy at arterial compression (artery): No efficacy

O=C([O-])c1c(Cl)c(Cl)c(Cl)c(Cl)c1-c1c2cc(I)c(=O)c(I)c-2oc2c(I)c([O-])c(I)cc12.[Na+].[Na+] [Rose Bengal]
efficacy at arterial compression (artery): No efficacy
